Patent publication US20060205697A1, “Novel betulin derivatives, preparation thereof and use thereof” (priority 2004, published 2006)
Like-named read-outs stand apart in the source and are kept apart here.

Experiments:
[1] = Compound toxicity in mock-infected MT-2 cells, XTT method; format: cell-based; conditions: human
Method: (§1) The human T-cell line, MT-2, was maintained in continuous culture with complete medium (RPMI 1640 with 10% fetal calf serum supplemented with L-glutamine at 5% CO2 and 37° C.). Test samples were first dissolved in dimethyl sulfoxide at a concentration of 10 mg/mL to generate master stocks with dilutions made into tissue culture media to generate working stocks. The final drug concentrations used for screening were 25. 2.5, 0.25, and 0.025 μg/mL. For agents found to be active, additional dilutions were prepared for subsequent testing so that an accurate EC50 value (defined below) could be determined. Test samples were prepared in duplicate (45 μL/well) and to each sample well was added […] of media containing MT-2 cells at 3×10^5 cells/mL and 45 μL of virus inoculum (HIV-1 IIIIB isolate) at a concentration necessary to result in 50% killing of the cell targets at 5 days post-infection (PI). Control wells containing virus and cells only (no drug) and cells only (no virus or drug) were also prepared. A second set of samples were prepared identical to the first and were added to cells under identical conditions without virus (mock infection) for toxicity determinations (IC50 defined below). In addition, AZT was also assayed during each experiment as a positive drug control. On day 5 PI, virus-induced cell killing was determined by measuring cell viability using the XTT method (Roehm, N., et al., supra). Compound toxicity was determined by XTT using the mock-infected samples. If a test sample had suppressive capability and was not toxic, its effects were reported in the following terms: IC50, the concentration of test sample which is toxic to 50% of the mock-infected MT-2 cells; EC50, the concentration of the test sample that is able to suppress HIV replication by 50%; and the Therapeutic index (TI) the ratio of the IC50 to EC50. The effective (EC50) and inhibitory (IC50) concentrations for anti-HIV activity and cytotoxicity, respectively, were determined (Roehm, N., et al., supra).

[2] = tested on: HIV-1 IIIIB isolate; experiment: HIV-1 inhibition: suppression of virus-induced cell killing in MT-2 cells, XTT method; format: cell-based; conditions: Human immunodeficiency virus 1, IIIB, MT2, 120 h, read-out: anti-HIV activity (EC50)
Method: The biological evaluation of HIV-1 inhibition can be carried out as follows according to established protocols (Montefiori, D. C., et al., Clin. Microbiol. 26:231-235 (1988); Roehm, N., et al. J. Immunol. Methods 142:257-265 (1991)).
as §1

[3] = tested on: HIV-1 replication in H9 lymphocyte cells; conditions: cited from earlier work

## C=C(C)[C@@H]1CC[C@]2(C(=O)OC3CCOC3)CC[C@]3(C)[C@H](CC[C@@H]4[C@@]5(C)CC[C@H](OC(=O)CC(C)(C)CC(=O)O)C(C)(C)[C@@H]5CC[C@]43C)[C@@H]12 (mixture of isomers) [Compound 231, 3-O-(31,3′-Dimethylglutaryl)betulinic acid 3-(R/S)-3-(tetrahydrofuranyl) ester]
[1]
  IC50 at 5 days: 5000 to 100000 nM
[2]
  EC50: 1 to 300 nM

## C=C(C)[C@@H]1CC[C@]2(CN)CC[C@]3(C)[C@H](CC[C@@H]4[C@@]5(C)CC[C@H](OC(=O)CC(C)(C)CC(=O)O)C(C)(C)[C@@H]5CC[C@]43C)[C@@H]12 [Compound 49, 3-O-(3′,3′-dimethylglutaryl)lup-20(29)-en-28-ylamine]
[1]
  IC50 at 5 days: 5000 to 100000 nM
[2]
  EC50: 1 to 300 nM

## C=C(C)[C@@H]1CC[C@]2(C(=O)OCCC#N)CC[C@]3(C)[C@H](CCC4[C@@]5(C)CC[C@H](OC(=O)CC(C)(C)CC(=O)O)C(C)(C)C5CC[C@]43C)C12 (some centres unmarked) [Compound 206, 3-O-(3′,3′-Dimethylglutaryl)betulinic acid 2-cyanoethyl ester]
[1]
  IC50 at 5 days: 5000 to 100000 nM
[2]
  EC50: 1 to 300 nM

## C=C(C)[C@@H]1CC[C@]2(C(=O)OCCN(C)C)CC[C@]3(C)[C@H](CCC4[C@@]5(C)CC[C@H](OC(=O)CC(C)(C)CC(=O)O)C(C)(C)C5CC[C@]43C)C12 (some centres unmarked) [Compound 218, 3-O-(3′,3′-Dimethylglutaryl)betulinic acid 2-N,N-dimethylaminoethyl ester]
[1]
  IC50 at 5 days: 5000 to 100000 nM
[2]
  EC50: 1 to 300 nM

## C=C(C)[C@@H]1CC[C@]2(C(=O)OCCOC)CC[C@]3(C)[C@H](CC[C@@H]4[C@@]5(C)CC[C@H](OC(=O)CC(C)(C)CC(=O)O)C(C)(C)[C@@H]5CC[C@]43C)[C@@H]12 [Compound 223, 3-O-(3′,3′-Dimethylglutaryl)betulinic acid 2-methoxyethyl ester]
[1]
  IC50 at 5 days: 5000 to 100000 nM
[2]
  EC50: 1 to 300 nM

## C=C(C)[C@@H]1CC[C@]2(C(=O)OC3CCN(C(=O)OC(C)(C)C)C3)CC[C@]3(C)[C@H](CC[C@@H]4[C@@]5(C)CC[C@H](OC(=O)CC(C)(C)CC(=O)O)C(C)(C)[C@@H]5CC[C@]43C)[C@@H]12 (stereo partly drawn) [Compound 227, 3-O-(3′,3′-Dimethylglutaryl)betulinic acid (R)-3-[1-(tert-butoxycarbonyl)-pyrrolidinyl] ester]
[1]
  IC50 at 5 days: 5000 to 100000 nM
[2]
  EC50: 1 to 300 nM

## C=C(C)[C@@H]1CC[C@]2(C(=O)OCC)CC[C@]3(C)[C@H](CC[C@@H]4[C@@]5(C)CC[C@H](OC(=O)CC(C)(C)CC(=O)O)C(C)(C)[C@@H]5CC[C@]43C)[C@@H]12 [Compound 235, 3-O-(3′,3′-Dimethylglutaryl)betulinic acid ethyl ester]
[1]
  IC50 at 5 days: 5000 to 100000 nM
[2]
  EC50: 1 to 300 nM

## C=C(C)[C@@H]1CC[C@]2(CNC(=O)OC(C)(C)C)CC[C@]3(C)[C@H](CC[C@@H]4[C@@]5(C)CC[C@H](OC(=O)CC(C)(C)CC(=O)O)C(C)(C)[C@@H]5CC[C@]43C)[C@@H]12 [Compound 1065, tert-Butoxycarboxamide N-[3-O-(3′,3′-dimethylglutaryl)lup-20(29)-en-28-yl]]
[1]
  IC50 at 5 days: 5000 to 100000 nM
[2]
  EC50: 1 to 300 nM

## CC(C)[C@@H]1CC[C@]2(C(=O)O)CC[C@]3(C)C(CCC4[C@@]5(C)CC[C@H](O)C(C)(C)C5CC[C@]43C)C12 (some centres unmarked) [dihydrobetulinic acid]
[3]; H9 lymphocyte cells
  T.I.: 14
[3]; unit inferred, Fujioka et al. 1994, read-out: EC50, anti-HIV activity
  EC50: 900 nM

## CC(=O)[C@@H]1CC[C@]2(C(=O)O)CC[C@]3(C)[C@H](CC[C@@H]4[C@@]5(C)CC[C@H](O)C(C)(C)[C@@H]5CC[C@]43C)[C@@H]12 [platanic acid]
[3]; H9 lymphocyte cells
  T.I.: 14
[3]; H9 lymphocyte cells, read-out: EC50, inhibitory activity against HIV-1 replication
  EC50: 6500 nM
